Data on 27 molecules can be found in patent US20230286930A1, “N -SUBSTITUTED 4-(1,3-ARYLOXAZOLO-2-YL)PHENYL COMPOUNDS FOR THE TREATMENT AND PROPHYLAXIS OF HEPATITIS B VIRUS INFECTION” (Hoffmann-La Roche Inc., priority 2020, published 2023).

SMILES strings stand for the structures. pIC50: −log10 of the molar value.

Series [1] deals with HBeAg. Briefly: PHH natural infection assay, HBeAg (alphalisa). It counts as cell-based, HBV. Particulars: Hepatitis B virus, read-out: HBeAg IC50. Here is the method: (§1) Detailed procedures regarding primary human hepatocyte (PHH) HBV natural infection assay are described as below. One tube of frozen PHH (10 million cells) is thawed in 37° C. water bath and then transferred to 20 mL of PHH thawing medium (Sigma, InVitroGRO HT Medium, Cat. S03319) with gently mixing. The cells were then centrifuged at […] for 5 min, the supernatant was discarded and the tube was refilled with 25 mL of PHH plating medium (Sigma, InVitroGRO CP Medium, Cat. S03317). The tube was shaken very gently to re-suspend all cells, and then 50 μL of cells were transferred to each well 384-well collagen I coated plate with appropriate liquid handling equipment, e.g. Integra VIAFLO384 or Agilent Bravo. The cells were then cultured for 24 hours in a cell incubator. For HBV infection, after PHH attachment on the culture plate, the plating medium was removed and replenished with PHH culture medium containing HBV virus. The PHH culture medium was prepared with Dulbecco's Modified Eagle Medium (DMEM)/F12 (1:1 in volume ratio) containing 10% fetal bovine serum (Gibco, Cat. 10099141), 5 ng/mL human epidermal growth factor (Gibco, Cat.PHG0311L), 20 ng/mL dexamethasone (Sigma, Cat.D4902-100 mg), 250 ng/mL human recombinant insulin (Gibco, Cat.41400045) and 100 U/mL penicillin. HBV virus at 200 genome equivalent (GE) per cell with 4% PEG8000 (Sigma, Cat.P1458) containing culture medium were added to the PHH culture medium for infection. The cells were then cultured for 24 hours in cell incubator. Then the cell culture supernatant was removed. The HBV-infected PHH were cultured with sandwich culture method with PHH culture medium containing 1% DMSO and 0.25 mg/mL matrix gel for 72 hours. The supernatant was then refreshed with PHH culture medium containing different concentrations of testing compounds for two times with 72-hour interval. At the end of treatment, the supernatant was collected for viral markers measurements, including HBsAg, HBeAg, HBV DNA and cytotoxicity. HBsAg and HBeAg were detected using alphalisa method using their specific antibodies. For HBV DNA detection, HBV DNA Quantitative Fluorescence Diagnostic Kit (Sansure Biotech Inc.) was used following the manufacture's protocol. Cytotoxicity was determined using Cell Counting Kit-8 (CCK8, Dojindo Molecular Technologies, Inc.).
(§2) The compounds of the present invention were tested for their capacity to inhibit HBsAg and HBeAg as described herein.
On the technique in general: In Alpha technology, singlet oxygen from a donor bead excites a nearby acceptor bead.

Series [2] in a line: PHH natural infection assay, cytotoxicity (Cell Counting Kit-8). It counts as cell-based. The conditions noted are these: human. On the procedure: as §1
In series [3] the test system is HBsAg. As to the kind of experiment: PHH natural infection assay, HBsAg (alphalisa). Type of series: cell-based, HBV. The conditions noted are these: Hepatitis B virus, read-out: HBsAg IC50. Here is the method:
as §1, §2

Broadly, the pIC50 is the negative decadic logarithm of the IC50, by convention in mol/L. By CC50 is commonly meant the concentration that lowers cell viability or growth by half. Higher therefore signals lower toxicity to the cells.

Consider `O=C(Nc1ccc(-c2nc3cccnc3o2)cc1)[C@H]1CCS(=O)(=O)C1` (single isomer, unassigned) [Example 86-a], for which the figures for the pIC50 in series [1] and in series [3] were 5.14 and 5.35, respectively. Also, in series [2], the CC50 at 144 h was over 100 µM.
For `O=C(Nc1ccc(-c2nc3cccnc3o2)cc1)[C@@H]1CCS(=O)(=O)C1` (single isomer, unassigned) [Example 86-b], in that order: 5.73, 5.71 and over 100 µM.
For `O=C(Nc1ccc(-c2nc3cc(Cl)ccc3o2)cc1)[C@@H]1CCOC1` (single isomer, unassigned) [Example 87-a], in that order: 5.39, 5.39 and over 100 µM.
For `O=C(Nc1ccc(-c2nc3cc(Cl)ccc3o2)cc1)[C@H]1CCOC1` (single isomer, unassigned) [Example 87-b], in that order: 5.42, 5.40 and over 100 µM.
Regarding `O=C(Nc1ccc(-c2nc3ccc(F)cc3o2)cc1)C1CCOC1` (stereo not drawn) [Example 1, N-[4-(6-fluoro-1,3-benzoxazol-2-yl)phenyl]tetrahydrofuran-3-carboxamide], the pIC50 was 6.15 in series [1] and 6.11 in series [3]. The CC50 at 144 h in series [2] is over 100 µM.
Taken in the same sequence, the figures for `CC(O)C(=O)Nc1ccc(-c2nc3ccc(F)cc3o2)cc1` (stereo not drawn) [Example 2, N-[4-(6-fluoro-1,3-benzoxazol-2-yl)phenyl]-2-hydroxy-propanamide] were 5.89, 5.94 and over 100 µM.
Taken in the same sequence, the figures for `CC(C)(C)C(=O)Nc1ccc(-c2nc3ccc(F)cc3o2)cc1` [Example 3, N-[4-(6-fluoro-1,3-benzoxazol-2-yl)phenyl]-2,2-dimethyl-propanamide] were 5.79, 5.91 and over 100 µM.
Taken in the same sequence, the figures for `O=C(Nc1ccc(-c2nc3ccc(F)cc3o2)cc1)C1CCSCC1` [Example 4, N-[4-(6-fluoro-1,3-benzoxazol-2-yl)phenyl]tetrahydrothiopyran-4-carboxamide] were 6.19, 5.97 and over 100 µM.
Consider `CC1(C(=O)Nc2ccc(-c3nc4ccc(F)cc4o3)cc2)CCCO1` (stereo not drawn) [Example 5, N-[4-(6-fluoro-1,3-benzoxazol-2-yl)phenyl]-2-methyl-tetrahydrofuran-2-carboxamide], for which the pIC50 in series [1] and in series [3] was 5.84 in each case. In series [2], this molecule came in with a CC50 at 144 h of over 100 µM.
With `CC(C)(C)C(=O)Nc1ccc(-c2nc3cc(F)ccc3o2)cc1` [Example 6, N-[4-(5-fluoro-1,3-benzoxazol-2-yl)phenyl]-2,2-dimethyl-propanamide], the pIC50 was 5.26 in series [1] and 5.79 in series [3]. The CC50 at 144 h in series [2] is over 100 µM.
For `O=C(Nc1ccc(-c2nc3cc(F)ccc3o2)cc1)C1CCSCC1` [Example 7, N-[4-(5-fluoro-1,3-benzoxazol-2-yl)phenyl]tetrahydrothiopyran-4-carboxamide], in that order: 5.29, 5.41 and over 100 µM.
For `O=C(Nc1ccc(-c2nc3ccc(Cl)cc3o2)cc1)C1CCOC1` (stereo not drawn) [Example 8, N-[4-(6-chloro-1,3-benzoxazol-2-yl)phenyl]tetrahydrofuran-3-carboxamide], in that order: 6.09, 6.04 and over 100 µM.
Taken in the same sequence, the figures for `CCCC(=O)Nc1ccc(-c2nc3ccc(Cl)cc3o2)cc1` [Example 9, N-[4-(6-chloro-1,3-benzoxazol-2-yl)phenyl]butanamide] were 5.84, 5.92 and over 100 µM.
Turning to `O=C(Nc1ccc(-c2nc3ccc(Cl)cc3o2)cc1)C1CCS(=O)(=O)C1` (stereo not drawn) [Example 10, N-[4-(6-chloro-1,3-benzoxazol-2-yl)phenyl]-1,1-dioxo-thiolane-3-carboxamide], the pIC50 in series [1] was 5.36; in series [3], 5.19. For the same molecule, the CC50 at 144 h in series [2] was over 100 µM.
For `O=C(Nc1ccc(-c2nc3cccc(F)c3o2)cc1)c1ccoc1` [Example 11, N-[4-(7-fluoro-1,3-benzoxazol-2-yl)phenyl]furan-3-carboxamide], in that order: 5.25, 5.69 and over 100 µM.
For `CC1(C(=O)Nc2ccc(-c3nc4cccc(F)c4o3)cc2)COC1` [Example 12, N-[4-(7-fluoro-1,3-benzoxazol-2-yl)phenyl]-3-methyl-oxetane-3-carboxamide], in that order: 6.20, 6.32 and over 100 µM.
Taken in the same sequence, the figures for `CC(C)(O)C(=O)Nc1ccc(-c2nc3cccc(F)c3o2)cc1` [Example 13, N-[4-(7-fluoro-1,3-benzoxazol-2-yl)phenyl]-2-hydroxy-2-methyl-propanamide] were 6.72, 6.59 and over 100 µM.
For the molecule `O=C(Nc1ccc(-c2nc3cccc(F)c3o2)cc1)C12CC(C1)C2` [Example 14, N-[4-(7-fluoro-1,3-benzoxazol-2-yl)phenyl]bicyclo[1.1.1]pentane-1-carboxamide], the results for the pIC50 in series [1] and in series [3] were 6.40 and 6.48, respectively. For the same molecule, the CC50 at 144 h in series [2] is over 100 µM.
On to `O=C(Nc1ccc(-c2nc3cccc(F)c3o2)cc1)C1CCOC1` (stereo not drawn) [Example 15, N-[4-(7-fluoro-1,3-benzoxazol-2-yl)phenyl]tetrahydrofuran-3-carboxamide], for which the figures for the pIC50 in series [1] and in series [3] were 5.97 and 6.00, respectively. Moreover, in series [2], the CC50 at 144 h was over 100 µM.
For `O=C(Nc1ccc(-c2nc3cccc(F)c3o2)cc1)C12CC(F)(C1)C2` [Example 16, 3-fluoro-N-[4-(7-fluoro-1,3-benzoxazol-2-yl)phenyl]bicyclo[1.1.1]pentane-1-carboxamide], in that order: 6.36, 6.32 and over 100 µM.
For `O=C(Nc1ccc(-c2nc3cccc(F)c3o2)cc1)C1CCS(=O)(=O)C1` (stereo not drawn) [Example 17, N-[4-(7-fluoro-1,3-benzoxazol-2-yl)phenyl]-1,1-dioxo-thiolane-3-carboxamide], in that order: 6.20, 6.27 and over 100 µM.
`O=C(Nc1ccc(-c2nc3cccc(F)c3o2)cc1)C1CCS(=O)(=O)CC1` [Example 18, N-[4-(7-fluoro-1,3-benzoxazol-2-yl)phenyl]-1,1-dioxo-thiane-4-carboxamide]: the pIC50 in series [1] is 6.02; in series [3], 6.04. The molecule also registered a CC50 at 144 h in series [2] of over 100 µM.
For `CC(C)(C)C(=O)Nc1ccc(-c2nc3cccc(F)c3o2)cc1` [Example 19, N-[4-(7-fluoro-1,3-benzoxazol-2-yl)phenyl]-2,2-dimethyl-propanamide], in that order: 6.01, 6.17 and over 100 µM.
Taken in the same sequence, the figures for `O=C(Nc1ccc(-c2nc3cccc(F)c3o2)cc1)C1CC1` [Example 20, N-[4-(7-fluoro-1,3-benzoxazol-2-yl)phenyl]cyclopropanecarboxamide] were 6.16, 6.15 and over 100 µM.
Taken in the same sequence, the figures for `CC1(C(=O)Nc2ccc(-c3nc4cccc(F)c4o3)cc2)CCOC1` (stereo not drawn) [Example 21, N-[4-(7-fluoro-1,3-benzoxazol-2-yl)phenyl]-3-methyl-tetrahydrofuran-3-carboxamide] were 6.07, 6.14 and over 100 µM.
In the case of `O=C(Nc1ccc(-c2nc3cccc(F)c3o2)cc1)C1CC2CCC(C1)O2` (stereo not drawn) [Example 22, N-[4-(7-fluoro-1,3-benzoxazol-2-yl)phenyl]-8-oxabicyclo[3.2.1]octane-3-carboxamide], the pIC50 in series [1] is 5.91; in series [3], 6.02. Further, in series [2], the CC50 at 144 h was over 100 µM.
For `O=C(Nc1ccc(-c2nc3cccc(F)c3o2)cc1)C1COCCO1` (stereo not drawn) [Example 23, N-[4-(7-fluoro-1,3-benzoxazol-2-yl)phenyl]-1,4-dioxane-2-carboxamide], in that order: 6.28, 6.19 and over 100 µM.
